In ChEMBL document CHEMBL1201862, “PubChem BioAssay data set” (2004):
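Test compounds were applied to cells in 96-well plates for 48 hours at 5 doses. GI50 is the concentration that inhibits growth by half.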 Activity calls are given as the source filed them. No stated cut-off is given here; in the data, active = GI50 up to about 1.1 µM and inactive = higher.

What was measured:
Assay in all cases: NCI-60 cell line screen, 48 h
CCRF-CEM = system: CCRF-CEM
KM12 = system: KM12
SK-MEL-2 = system: SK-MEL-2
SF-295 = system: SF-295
SW-620 = system: SW-620
SN12C = system: SN12C
786-0 = system: 786-0
UACC-257 = system: UACC-257
A549 = system: A549
SNB-75 = system: SNB-75
HCC 2998 = system: HCC 2998
OVCAR-8 = system: OVCAR-8
TK-10 = system: TK-10
SF-539 = system: SF-539
MOLT-4 = system: MOLT-4
MDA-MB-231 = system: MDA-MB-231
OVCAR-4 = system: OVCAR-4
DU-145 = system: DU-145
RPMI-8226 = system: RPMI-8226
HOP-62 = system: HOP-62
MDA-MB-435 = system: MDA-MB-435
SF-268 = system: SF-268
U-251 = system: U-251
SK-OV-3 = system: SK-OV-3
SK-MEL-5 = system: SK-MEL-5
SR = system: SR
Hs-578T = system: Hs-578T
K562 = system: K562
HCT-116 = system: HCT-116
A498 = system: A498
MDA-N = system: MDA-N
UACC-62 = system: UACC-62
MCF7 = system: MCF7
EKVX = system: EKVX
OVCAR-3 = system: OVCAR-3
HT-29 = system: HT-29
NCI/ADR-RES = system: NCI/ADR-RES
NCI-H226 = system: NCI-H226
HOP-92 = system: HOP-92
CAKI-1 = system: CAKI-1
UO-31 = system: UO-31
COLO 205 = system: COLO 205
PC-3 = system: PC-3
LOX IMVI = system: LOX IMVI
RXF 393 = system: RXF 393
M14 = system: M14
IGROV-1 = system: IGROV-1
HL-60 = system: HL-60
SK-MEL-28 = system: SK-MEL-28
NCI-H23 = system: NCI-H23
OVCAR-5 = system: OVCAR-5
ACHN = system: ACHN
T47D = system: T47D
BT-549 = system: BT-549
HCT-15 = system: HCT-15
NCI-H460 = system: NCI-H460

## c1cc2c3ccsc3c3sccc3c2s1
CCRF-CEM
  GI50: > 100 µM (inactive)
KM12
  GI50: > 100 µM (inactive)
SK-MEL-2
  GI50: 10.6 µM (inactive)
SF-295
  GI50: > 100 µM (inactive)
SW-620
  GI50: > 100 µM (inactive)
SN12C
  GI50: > 100 µM (inactive)
786-0
  GI50: 95.9 µM (inactive)
UACC-257
  GI50: > 100 µM (inactive)
A549
  GI50: > 100 µM (inactive)
SNB-75
  GI50: 23.1 µM (inactive)
HCC 2998
  GI50: 36.4 µM (inactive)
OVCAR-8
  GI50: > 100 µM (inactive)
TK-10
  GI50: > 100 µM (inactive)
SF-539
  GI50: 90.8 µM (inactive)
MOLT-4
  GI50: 55.7 µM (inactive)
MDA-MB-231
  GI50: > 100 µM (inactive)
OVCAR-4
  GI50: > 100 µM (inactive)
DU-145
  GI50: > 100 µM (inactive)
RPMI-8226
  GI50: > 100 µM (inactive)
HOP-62
  GI50: 21.4 µM (inactive)
MDA-MB-435
  GI50: > 100 µM (inactive)
SF-268
  GI50: > 100 µM (inactive)
U-251
  GI50: > 100 µM (inactive)
SK-OV-3
  GI50: > 100 µM (inactive)
SK-MEL-5
  GI50: > 100 µM (inactive)
SR
  GI50: 24.7 µM (inactive)
Hs-578T
  GI50: 11.9 µM (inactive)
K562
  GI50: > 100 µM (inactive)
HCT-116
  GI50: > 100 µM (inactive)
A498
  GI50: > 100 µM (inactive)
MDA-N
  GI50: > 100 µM (inactive)
UACC-62
  GI50: > 100 µM (inactive)
MCF7
  GI50: 26.9 µM (inactive)
EKVX
  GI50: > 100 µM (inactive)
OVCAR-3
  GI50: > 100 µM (inactive)
HT-29
  GI50: 99.5 µM (inactive)
NCI/ADR-RES
  GI50: > 100 µM (inactive)
NCI-H226
  GI50: 10 µM (inactive)
HOP-92
  GI50: > 100 µM (inactive)
CAKI-1
  GI50: > 100 µM (inactive)
UO-31
  GI50: > 100 µM (inactive)
COLO 205
  GI50: > 100 µM (inactive)
PC-3
  GI50: > 100 µM (inactive)
LOX IMVI
  GI50: > 100 µM (inactive)
RXF 393
  GI50: > 100 µM (inactive)
M14
  GI50: > 100 µM (inactive)
IGROV-1
  GI50: 16.3 µM (inactive)
HL-60
  GI50: 46.9 µM (inactive)
SK-MEL-28
  GI50: > 100 µM (inactive)
NCI-H23
  GI50: 47.5 µM (inactive)
OVCAR-5
  GI50: > 100 µM (inactive)
ACHN
  GI50: > 100 µM (inactive)
T47D
  GI50: > 100 µM (inactive)
BT-549
  GI50: > 100 µM (inactive)
HCT-15
  GI50: > 100 µM
NCI-H460
  GI50: > 100 µM (inactive)
